Measurements as given in patent US20260000642A1 (Tay Therapeutics Limited, priority 2022, published 2026).
Values joined by “and” are separate entries in the source; they are usually repeats but may differ in a detail not shown here. Identical values can stand only once.

Tests used:
BRD4 BD2 = molecular target: T1, BRD4 BD2 (Homo sapiens, UniProt O60885); test: NanoBRET bromodomain assay, NanoLuc-BRD4-BD2 fusion vector in HEK293 cells; type: cell-based
T1 construct: HEK293 cells were transfected using NanoLuc-BRD4-BD1 or NanoLuc-BRD4-BD2 fusion vectors; host or cells: HEK293
Excerpt: Bromodomain Assay Procedure

[1] = Plasma stability assay, rat plasma; type: in vitro ADME; settings: 37° C., Method 1 (5 μM)
Method in brief: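 Compound incubated in plasma at 37° C, either at 5 μM (0.5% DMSO) sampled at 0, 15, 30, 60, 120 min (Method 1) or at 10 μM (2% DMSO) sampled at 0, 15, 30, 60, 90, 120 min (Method 2). Quenched with cold acetonitrile plus internal standard; LC-MS/MS, % remaining relative to 0 min.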

[2] = Plasma stability assay, mouse plasma; type: in vitro ADME; settings: 37° C., Method 1 (5 μM)
Description: Exemplary compounds of the disclosure are stable upon incubation in mouse plasma. Stability is expressed as a % remaining after 120 minutes. The experimental methods and results (Table 2) are provided hereinafter.
Plasma Stability Assay, Method 1
From stock solution of compound in 10 mM DMSO, a working solution of 1 mM is prepared by diluting the compound in DMSO. To 398 μL of plasma pre-warmed at 37° C. for 15 minutes), 2 μL of working solution of compound is added, resulting in a final concentration of 5 μM (0.5% DMSO) for the compound. The sample is then incubated at 37° C. Aliquot is withdrawn at specified time-points (0, 15, 30, 60 and 120 mins). The reaction is stopped by addition of 450 μL cold acetonitrile containing internal standard (IS). […] Aliquots of the supernatant is analysed using LC-MS/MS. The percent remaining of the compound at each time point is calculated with respect to the control sample (0 min time-point).
Plasma Stability Assay, Method 2
A working solution of compound (500 μM) is prepared in DMSO (100%). To 735 μL of plasma, 15 μL of working solution of compound is added—resulting in a final concentration of 10 μM (2% DMSO) for the compound. […] The samples are centrifuged and the supernatants analyzed using LC-MS/MS. The percent remaining of the compound at each time point is calculated with respect to the control sample (0 min time-point).

[3] = Beagle dog PK study 2 (IV, HPβCD based formulation); type: in vivo
Description: The purpose of this study was to examine the pharmacokinetics of Example 101 in beagle dogs. […] An oral PK study was also undertaken in Lewis rats—see Experimental Method C.
Body weight was recoded prior to dosing, and detailed clinical observations were made prior to dosing and throughout the study, as needed.
78.646 mL of HPβCD (20% solution w/v) was then added with vortex and sonication.
Blood samples (˜0.3 mL) were collected according to a schedule (shown below) by venipuncture of peripheral veins except for the dosing vein, and EDTA-K2 was used as anticoagulant. Within 30 minutes of collection, the samples were centrifuged at approximately 2000× g for 10 minutes at 4° C. to obtain blood plasma. The plasma samples were immediately divided into two aliquots (˜75 μL each), transferred to a cryogenic vial, and stored in a freezer at −75±15° C. prior to analysis.
Blood samples were collected at 0.083, 0.25, 0.5, 1, 2, 4, 8, and 24 h following the initial dosing (0 h).
The experiments were conducted on a Shimadzu DGU-20A5R and AB API 5500+LC/MS/MS instrument with an Agilent Poroshell EC-C18 4 μm (50×2.1 mm) column. A gradient of 95% water (0.1% formic acid)/95% acetonitrile (0.1% formic acid) was used as the mobile phase. The sample injection volume was 1 μL, and the flow rate was 0.6 mL/min. The gathered data were used for pharmacokinetic calculations using T½, C0, AUClast, AUCinf, MRTinf, CI, Vss, and Number of Points for Regression as parameters.

[4] = tested on: UUO renal fibrosis in rats; test: Unilateral Urethral Obstruction (UUO) rat renal fibrosis model: body weight, clinical observations, nephropathy scores; type: in vivo; design: Glomerulosclerosis clinical score / Interstitial nephritis clinical score / Collagen fiber deposition clinical score / Nephropathy clinical score: scale not given here; settings: for Body weight: individual animals ID 1-8; for Clinical Observation: — = no finding, cells wrap: soft/stool, Anal/dirty
Excerpt: Unilateral Urethral Obstruction (UUO) is a complex model of renal fibrosis (RF) disease. RF is a common outcome in progressive chronic kidney diseases, characterized by excessive formation of internal scar tissue. Surgical obstruction of urine flow can be used to trigger this disease in rodents. The UUO model allows for evaluation of potential drugs as treatment for RF.
Experimental groups for the study are outlined in Table 10. […] Briefly, animals were anesthetized using a Zoletil/Xylazine mixture (20:1, v:v) for a final dose of 25 mg/kg. The operation area was disinfected with 75% alcohol before shaving. Rats in UUO group were exposed left ureter through a small incision on the left side of the abdomen and ligated with 3-0 silk at two locations about 0.5 cm below the renal hilum. The ureters of sham rats in Group 1 were manipulated but not ligated.
Starting on Day 0, animals in group 2 were administered daily doses of the vehicle for 14 days.
(§1) Clinical signs for all animals were monitored and recorded daily. Blind clinical nephropathy scores were conducted for all animals in the study. Glomerulosclerosis, interstitial nephritis, collagen fiber deposition, nephropathy were each assessed for all experimental rats, and a total clinical score was determined for each rat. The scoring system represented the degree or percentage of lesions in the whole kidney. Clinical score assessments were performed on Day 14.
Starting on Day 0, animals in group 2 were administered daily doses of the vehicle for 14 days. […] A design of the UUO study is depicted in FIG. 9B.
as §1, with “Blind” for “Clinical signs for all animals were monitored and recorded daily. Blind”, “deposition, and” for “deposition,”

[5] = UUO rats, individual animals No. 1-8

CNC(=O)c1[nH]c(C(=O)NC2CCC2)cc1O[C@@H](C)c1ccccc1 [Example 101, N^5-cyclobutyl-N^2-methyl-3-(1-phenylethoxy)-1H-pyrrole-2,5-dicarboxamide]
selectivity for BDII relative to GSK620 (BRD4 BD2): greater than about two orders of magnitude
Plasma Stability (% remaining at 120 minutes) Rat [1]: 61%
Plasma Stability (% remaining at 120 minutes) Mouse [2]: >99%
AUClast/D, Mean ([3]; PK study 2, IV 1 mg/kg): 977 (ng · h/mL)/(mg/kg)
AUC—% Extrap_obs, Mean ([3]; PK study 2, IV 1 mg/kg): 0.689%
C0, Mean ([3]; PK study 2, IV 1 mg/kg): 1875 ng/mL
Cl_obs, Mean ([3]; PK study 2, IV 1 mg/kg): 18.3 mL/min/kg
Vssz_obs, Mean ([3]; PK study 2, IV 1 mg/kg): 0.864 L/kg
Average plasma concentration, Mean ([3]; PK study 2, IV 1 mg/kg, 24 h): BLOQ
Vssz_obs ([3]; PK study 2, IV 1 mg/kg, Test Animal 1): 0.838 L/kg
Vssz_obs ([3]; PK study 2, IV 1 mg/kg, Test Animal 2): 0.886 L/kg
Vssz_obs ([3]; PK study 2, IV 1 mg/kg, Test Animal 3): 0.868 L/kg
clinical observations after intravenous administration ([3]; beagle dogs, PK study 2, IV, 0.5 mg/mL in HPβCD (20% solution w/v)/DMSO (99/1)): soft feces
clinical symptoms associated with UUO (overall conclusion) ([4]; 30 mg/kg): ameliorates clinical symptoms associated with UUO
Body weight ([4]; UUO rats, 30 mg/kg, Day 5, 30 mg/kg): 310 g
Body weight ([4]; UUO rats, 30 mg/kg, Day 7, 30 mg/kg): 270 g
Body weight ([4]; UUO rats, 30 mg/kg, Day 8, 30 mg/kg): 260 g and 290 g
Body weight ([4]; UUO rats, 30 mg/kg, Day 10, 30 mg/kg): 330 g (2×) and 320 g
Body weight ([4]; UUO rats, 30 mg/kg, Day 11, 30 mg/kg): 300 g and 330 g
Body weight ([4]; UUO rats, 30 mg/kg, Day 12, 30 mg/kg): 260 g and 310 g and 300 g and 340 g
Collagen fiber deposition clinical score [4, 5]: 2 (2×) and 1 (6×)
Glomerulosclerosis clinical score [4, 5]: 0
Interstitial nephritis clinical score [4, 5]: 3 (5×) and 2 (3×)
Nephropathy clinical score [4, 5]: 2 (2×) and 1 (6×)
Clinical Observation ([4]; UUO rats, individual animals No. 1-8, Day 3): diarrhea
Clinical Observation ([4]; UUO rats, individual animals No. 1-8, Day 5): Anal
Clinical Observation ([4]; UUO rats, individual animals No. 1-8, Day 6): Anal
Clinical Observation ([4]; UUO rats, individual animals No. 1-8, Day 7): Anal
Clinical Observation ([4]; UUO rats, individual animals No. 1-8, Day 8): soft
Clinical Observation ([4]; UUO rats, individual animals No. 1-8, Day 9): soft
Clinical Observation ([4]; UUO rats, individual animals No. 1-8, Day 10): soft
Clinical Observation ([4]; UUO rats, individual animals No. 1-8, Day 13): soft
Clinical Observation ([4]; UUO rats, individual animals No. 1-8, Day 14): Anal (2×) and soft
interstitial nephritis in representative pathology staining ([4]; UUO rats, 30 mg/kg (FIG. 13B)): mild interstitial nephritis
animals exhibiting diarrhea ([4]; UUO rats, 30 mg/kg, 14 days): One animal
animals exhibiting dirty anuses ([4]; UUO rats, 30 mg/kg, 14 days): Three animals
animals exhibiting soft stools ([4]; UUO rats, 30 mg/kg, 14 days): Four UUO rats
body weight over the 14-day study ([4]; UUO rats, 30 mg/kg, BID at 0 and 8 hours, 14 days (group 3)): slight weight loss over the first seven days of the study, and then gained weight over the remaining seven days
collagen fiber deposition score relative to UUO + vehicle ([4]; UUO rats, 30 mg/kg, Day 14): reduced
interstitial nephritis score relative to UUO + vehicle ([4]; UUO rats, 30 mg/kg, Day 14): reduced
nephropathy score relative to UUO + vehicle ([4]; UUO rats, 30 mg/kg, Day 14): reduced
total clinical scores relative to UUO + vehicle ([4]; UUO rats, 30 mg/kg, Day 14): reduced
